Test results taken from ChEMBL document CHEMBL4130472, “Synthesis of naphthazarin derivatives and identification of novel thioredoxin reductase inhibitor as potential anticancer agent” (Eur J Med Chem, 2017).
Substitutions are numbered along the chain they refer to. pIC50: −log10 of the molar value. The source made the active and inactive calls. The rule behind the calls is not given here.

Key:
[1] = system: HL-60; assay: Cytotoxicity in human HL60 cells assessed as cell viability at 20 uM incubated for 48 hrs by MTT assay; type: functional; settings: HL-60, 48 h, read-out: Activity
[2] = system: HL-60; assay: Effect on TrxR1 protein expression in human HL60 cells at 1 to 5 uM incubated for 24 hrs by Western blot; type: ADME, cell-based; settings: hl-60, 24 h
[3] = system: HEK-293T; assay: Cytotoxicity in HEK293T cells overexpressing TrxR1 (unknown origin) cells assessed as reduction in cell viability at 1 to 5 uM incubated for 48 hrs by MTT assay; type: functional, cell-based; settings: Homo sapiens
[4] = system: HL-60; assay: Cytotoxicity in human HL60 cells assessed as reduction in cell viability incubated for 48 hrs by MTT assay; type: functional, cell-based; settings: HL-60, 48 h
[5] = system: HL-60; assay: Cytotoxicity in human HL60 cells assessed as reduction in cell viability incubated for 72 hrs by MTT assay; type: functional, cell-based; settings: HL-60, 72 h
[6] = system: HL-60; assay: Cytotoxicity in human HL60 cells assessed as reduction in cell viability incubated for 48 hrs by trypan blue dye exclusion assay; type: functional, cell-based; settings: HL-60, 48 h
[7] = system: HepG2; assay: Cytotoxicity in human HepG2 cells assessed as reduction in cell viability at 1 to 5 uM incubated for 48 hrs by MTT assay; type: functional, cell-based
[8] = system: A549; assay: Cytotoxicity in human A549 cells assessed as reduction in cell viability at 1 to 5 uM incubated for 48 hrs by MTT assay; type: functional, cell-based
[9] = system: HeLa; assay: Cytotoxicity in human HeLa cells assessed as reduction in cell viability at 1 to 5 uM incubated for 48 hrs by MTT assay; type: functional, cell-based
[10] = system: HEK-293T; assay: Cytotoxicity in human HEK293T cells assessed as reduction in cell viability at 1 to 5 uM incubated for 48 hrs by MTT assay; type: cell-based
[11] = system: L02; assay: Cytotoxicity in human L02 cells assessed as reduction in cell viability at 1 to 5 uM incubated for 48 hrs by MTT assay; type: cell-based; settings: l02, 48 h
[12] = molecular target: T1, Thioredoxin reductase 1, cytoplasmic (Rattus norvegicus) (UniProt O89049); assay: (§1) Inhibition of NADPH-reduced rat TrxR1 assessed as suppression of DTNB reduction incubated for 1 hr
T1 sequence (whole entry): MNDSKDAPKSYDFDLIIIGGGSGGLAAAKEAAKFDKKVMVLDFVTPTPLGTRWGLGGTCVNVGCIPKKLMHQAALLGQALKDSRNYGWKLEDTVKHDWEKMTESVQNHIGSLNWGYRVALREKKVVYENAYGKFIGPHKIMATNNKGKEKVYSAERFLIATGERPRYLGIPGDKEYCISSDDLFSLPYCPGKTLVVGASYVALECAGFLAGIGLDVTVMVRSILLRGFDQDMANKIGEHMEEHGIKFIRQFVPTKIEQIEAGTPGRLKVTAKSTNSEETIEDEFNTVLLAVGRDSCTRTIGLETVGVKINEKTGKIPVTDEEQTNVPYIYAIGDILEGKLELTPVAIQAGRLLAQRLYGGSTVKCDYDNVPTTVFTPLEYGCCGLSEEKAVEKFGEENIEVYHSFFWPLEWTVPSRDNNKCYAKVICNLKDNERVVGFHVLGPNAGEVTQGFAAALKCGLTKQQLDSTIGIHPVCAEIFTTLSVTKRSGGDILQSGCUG

[13] = molecular target: T2, Thioredoxin reductase 1, cytoplasmic (Rattus norvegicus, UniProt O89049); assay: as §1
T2 sequence (O89049 whole entry): T1 sequence (whole entry)

[14] = molecular target: T1, Thioredoxin reductase 1, cytoplasmic (Rattus norvegicus); assay: Irreversible inhibition of NADPH-reduced rat TrxR1 assessed as suppression of DTNB reduction incubated for 1 hr followed by compound removal from incubation mixture by column desalting
[15] = system: T3, Thioredoxin reductase 1, cytoplasmic (Rattus norvegicus), O89049 [U498C]; assay: Inhibition of NADPH-reduced rat TrxR1 U498C mutant assessed as suppression of DTNB reduction at 1 to 5 uM incubated for 1 hr
T3 sequence (whole entry): T1 sequence (whole entry) with U498C

[16] = molecular target: T4, Glutathione reductase (Rattus norvegicus) (UniProt P70619); assay: Inhibition of NADPH-reduced rat glutathione reductase at 1 to 5 uM incubated for 1 hr in presence of NADPH and GSSG
T4 sequence (whole entry): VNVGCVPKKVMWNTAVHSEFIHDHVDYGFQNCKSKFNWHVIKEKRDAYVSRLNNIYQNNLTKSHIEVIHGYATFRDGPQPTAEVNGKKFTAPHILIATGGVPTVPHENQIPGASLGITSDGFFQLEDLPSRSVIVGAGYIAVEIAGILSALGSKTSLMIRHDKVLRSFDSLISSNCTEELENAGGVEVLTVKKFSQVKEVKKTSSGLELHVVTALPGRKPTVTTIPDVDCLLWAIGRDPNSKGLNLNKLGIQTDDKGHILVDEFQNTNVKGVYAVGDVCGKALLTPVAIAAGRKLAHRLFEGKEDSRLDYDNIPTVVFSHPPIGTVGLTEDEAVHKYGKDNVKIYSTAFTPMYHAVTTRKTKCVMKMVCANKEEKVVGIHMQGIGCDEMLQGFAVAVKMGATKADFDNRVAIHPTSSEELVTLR

[17] = molecular target: T5, Thioredoxin reductase 1, cytoplasmic (Homo sapiens) (UniProt Q16881); assay: Inhibition of TrxR1 in human HL60 cells incubated for 12 hrs by TRFS-green dye based fluorescence assay; type: cell-based
T5 sequence (whole entry): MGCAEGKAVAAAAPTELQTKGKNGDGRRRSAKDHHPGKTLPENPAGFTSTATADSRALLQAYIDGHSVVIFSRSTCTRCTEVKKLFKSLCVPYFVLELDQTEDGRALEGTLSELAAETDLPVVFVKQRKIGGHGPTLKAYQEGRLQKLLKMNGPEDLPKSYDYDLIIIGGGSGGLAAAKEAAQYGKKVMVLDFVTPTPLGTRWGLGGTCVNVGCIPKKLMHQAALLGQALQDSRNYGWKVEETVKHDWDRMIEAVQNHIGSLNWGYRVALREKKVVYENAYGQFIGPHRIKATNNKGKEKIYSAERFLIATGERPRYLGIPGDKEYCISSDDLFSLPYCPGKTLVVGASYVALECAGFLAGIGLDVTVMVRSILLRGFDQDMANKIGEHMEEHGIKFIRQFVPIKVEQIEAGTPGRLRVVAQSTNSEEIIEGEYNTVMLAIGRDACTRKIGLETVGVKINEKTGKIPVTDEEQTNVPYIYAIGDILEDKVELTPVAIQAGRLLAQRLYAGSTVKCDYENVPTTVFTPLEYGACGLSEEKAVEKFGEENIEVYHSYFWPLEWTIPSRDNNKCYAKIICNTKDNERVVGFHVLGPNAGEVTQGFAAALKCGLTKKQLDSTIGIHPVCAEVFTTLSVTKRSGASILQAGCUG

[18] = molecular target: T6, Thioredoxin reductase 1, cytoplasmic (Homo sapiens, UniProt Q16881); assay: Inhibition of TrxR1 in human HL60 cells incubated for 24 hrs by endpoint insulin reduction assay; type: cell-based
T6 sequence (Q16881 whole entry): T5 sequence (whole entry)

[19] = system: HEK-293T; assay: Cytotoxicity in HEK293T cells transfected with pIRESneo construct assessed as reduction in cell viability at 1 to 5 uM incubated for 48 hrs by MTT assay; type: functional, cell-based; settings: Homo sapiens
[20] = system: HeLa; assay: Cytotoxicity in human HeLa cells transfected with non targetting vector assessed as reduction in cell viability at 1 to 5 uM incubated for 48 hrs by MTT assay; type: functional, cell-based
[21] = system: HeLa; assay: Cytotoxicity in human HeLa cells transfected with shTrxR1 assessed as reduction in cell viability at 1 to 5 uM incubated for 48 hrs by MTT assay; type: functional, cell-based
[22] = system: HL-60; assay: Induction of ROS production in human HL60 cells at 1 to 5 uM incubated for 1 hr by DCFH-DA staining based fluorescence assay; type: functional, cell-based
[23] = system: HL-60; assay: Induction of ROS production in human HL60 cells at 1 to 5 uM incubated for 1 hr by DHE staining based fluorescence assay; type: functional, cell-based
[24] = system: HL-60; assay: Reduction in intracellular thiols in human HL60 cells at 1 to 5 uM incubated for 24 hrs by DTNB titration method; type: functional, cell-based
[25] = system: HL-60; assay: Reduction in GSH/GSSG ratio in human HL60 cells at 1 to 5 uM incubated for 24 hrs by enzymatic recycling method; type: functional, cell-based
[26] = system: HL-60; assay: Cytotoxicity in human HL60 cells assessed as induction of cell death at 1 uM incubated for 24 hrs by MTT assay; type: functional
[27] = system: HL-60; assay: Potentiation of H2O2-induced cytotoxicity in human HL60 cells assessed as induction of cell death at 1 uM incubated for 24 hrs by MTT assay (reference value: 4%); type: functional
[28] = system: HL-60; assay: Potentiation of H2O2-induced cytotoxicity in human HL60 cells assessed as induction of cell death at 3 uM incubated for 24 hrs by MTT assay; type: functional, cell-based
[29] = system: HL-60; assay: Cytotoxicity in human HL60 cells assessed as cell viability at 1 to 5 uM incubated for 24 hrs by MTT assay; type: functional, cell-based
[30] = system: HL-60; assay: Cytotoxicity in human HL60 cells assessed as cell viability at 1 to 5 uM incubated for 24 hrs after pre-treatment with […] before compound addition by MTT assay; type: functional, cell-based
[31] = system: HL-60; assay: Cytotoxicity in human HL60 cells assessed as cell viability at 1 to 5 uM incubated for 48 hrs after 24 hrs pre-treatment with 50 uM BSO before compound addition by MTT assay; type: functional, cell-based
[32] = system: HL-60; assay: Induction of apoptosis in human HL60 cells assessed as increase in caspase-3 activity at 1 to 3 uM incubated for 24 hrs using Ac-DEVD-pNA substrate by colorimetric assay; type: functional, cell-based
[33] = system: HL-60; assay: Induction of apoptosis in human HL60 cells assessed as increase in caspase-3 activity at 5 uM incubated for 24 hrs using Ac-DEVD-pNA substrate by colorimetric assay; type: functional, cell-based
[34] = system: HL-60; assay: Induction of apoptosis in human HL60 cells assessed as increase in condensed and fluorescent nuclei at 1 to 5 uM incubated for 24 hrs by Hoechst 33342 staining based phase contrast and fluorescence microscopy; type: functional, cell-based
[35] = system: HL-60; assay: Induction of apoptosis in human HL60 cells 0.5 uM incubated for 24 hrs by Annexin V/propidium iodide staining based flow cytometry; type: functional
[36] = system: HL-60; assay: Induction of apoptosis in human HL60 cells 1 uM incubated for 24 hrs by Annexin V/propidium iodide staining based flow cytometry; type: functional
[37] = system: HL-60; assay: Induction of apoptosis in human HL60 cells 3 uM incubated for 24 hrs by Annexin V/propidium iodide staining based flow cytometry; type: functional
[38] = system: HL-60; assay: Induction of apoptosis in human HL60 cells 5 uM incubated for 24 hrs by Annexin V/propidium iodide staining based flow cytometry; type: functional
[39] = system: HL-60; assay: Induction of apoptosis in human HL60 cells 0.5 to 5 uM incubated for 24 hrs in presence of NAC by Annexin V/propidium iodide staining based flow cytometry; type: functional, cell-based
[40] = system: HL-60; assay: Induction of necrosis in human HL60 cells 5 uM incubated for 24 hrs by Annexin V/propidium iodide staining based flow cytometry; type: functional, cell-based

CCCCCCCCNC1=CC(=O)c2c(O)ccc(O)c2C1=O
viability at 20 µM [1]: 61.1%

CC1=CC(=O)c2c(O)ccc(O)c2C1=O
Activity [2]: Non-Toxic | Activity [3]: inactive | viability at 20 µM [1]: 0% | pIC50 [4]: 6.14 | pIC50 [5]: 6.19 | pIC50 [6]: 6.07 | Activity [7]: Active | Activity [8]: Active | Activity [9]: Active | Activity [10]: Non-Toxic | Activity [11]: Non-Toxic | inhibition [12]: Dose-dependent effect | pIC50 [13]: 6.15 | inhibition [14]: Active | inhibition [15]: inactive | inhibition [16]: inactive | inhibition [17]: Dose-dependent effect | pIC50 [18]: 5.62 | Activity [19]: Active | Activity [20]: Active | Activity [21]: Active | Activity [22]: Active | Activity [23]: Dose-dependent effect | Activity [24]: Active | Activity [25]: Dose-dependent effect | Activity [26]: 27% | Activity [27]: >43% | Activity [28]: Active | Activity [29]: Active | Activity [30]: inactive | Activity [31]: Active | Activity [32]: Active | Activity [33]: inactive | Activity [34]: Active | Activity [35]: 10% | Activity [36]: 23% | Activity [37]: 42% | Activity [38]: 56% | Activity [39]: inactive | Activity [40]: Active

CCNC1=CC(=O)c2c(O)ccc(O)c2C1=O
viability at 20 µM [1]: 56.4%

O=C1C=C(N2CCCCC2)C(=O)c2c(O)ccc(O)c21
viability at 20 µM [1]: 54.9%

CCCCNC1=CC(=O)c2c(O)ccc(O)c2C1=O
viability at 20 µM [1]: 59.2%

O=C1C=CC(=O)c2c(Cl)ccc(O)c21
viability at 20 µM [1]: 23.1%

O=C1C=C(Nc2ccccc2)C(=O)c2c(O)ccc(O)c21
viability at 20 µM [1]: 59.7%

CCCNC1=CC(=O)c2c(O)ccc(O)c2C1=O
viability at 20 µM [1]: 59.4%
